{"source": "patent US12171743B2", "about": "“Forms of aticaprant” (Janssen Pharmaceuticals, Inc., priority 2022, dated 2024)", "assay": "Body weight by treatment group", "assay_type": "in vivo, human", "source_text": "Treatment with crystalline Form I of aticaprant, crystalline Form II of aticaprant, crystalline Form III of aticaprant, or amorphous aticaprant as described herein has several advantages over the treatments in the art. […] As used herein, the term “weight gain” refers to an increase in the weight of patient, relative to the weight of the patient before taking crystalline Form I of aticaprant, crystalline Form II of aticaprant, crystalline Form III of aticaprant, or amorphous aticaprant or the weight of the patient that is assessed at the time of the initial administration of the crystalline Form I of aticaprant, crystalline Form II of aticaprant, crystalline Form III of aticaprant, or amorphous aticaprant. In certain embodiments, the patient may actually see a decrease in overall weight, relative to the weight of the patient before taking crystalline Form I of aticaprant, crystalline Form II of aticaprant, crystalline Form III of aticaprant, or amorphous aticaprant.\nAt the lead-in baseline timepoint, the mean weight for subjects in the placebo group was 76.17 kg compared to 78.66 in the aticaprant group. After 6 weeks in the double-blind treatment phase, the mean weight in the placebo group was 75.75 kg compared to 78.57 kg in the aticaprant group. […] This is unexpected because other adjunctive treatments for MDD result in a mean weight increase. See, Thase M, et al. J Clin Psych. 2015: 76 (9), 1224-1231; Thase, J Clin Psych. 2015, 76 (9): 1232-1240; El Khalili, Int J Neuropsychopharmacol. 2010, 13, 917-932; Marcus, J. Clin. Psychopharmacol. […] Nashville, Tenn, ACNP, 2008; Earley, American College of Neuropsychopharmacology, 2007, Annual Meeting Abstracts (Boca Raton, Fla, Dec. 9-13, 2007). Nashville, TN, ACNP, 2007). See, Table 65."}
{"smiles": "Cc1cc(C)cc(C2CCCN2Cc2ccc(Oc3ccc(C(N)=O)cc3F)cc2)c1", "note": "(stereo not shown) [aticaprant, 3-fluoro-4-4-2-(3,5-dimethylphenyl) pyrrolidin-1-yl-methylphenoxybenzamide]", "values": [{"measurement": "Mean weight, mean (SE)", "setting": "Lead-in Baseline, n = 85", "value": "78.66 (1.65) kg"}, {"measurement": "Mean weight, mean (SE)", "setting": "Screening, n = 85", "value": "78.42 (1.65) kg"}, {"measurement": "Mean weight, mean (SE)", "setting": "Withdrawal Baseline (after 6 weeks double-blind treatment), n = 85", "value": "78.57 (1.71) kg"}, {"measurement": "Mean weight Relative % Change", "setting": "Withdrawal vs Lead-in, n = 85", "value": "−0.11", "unit": "%"}, {"measurement": "mean weight", "setting": "after 6 weeks in the double-blind treatment phase, lead-in baseline 78.66", "value": 78.57, "unit": "kg"}, {"measurement": "weight over the 6-week double blind treatment period (in words)", "setting": "in vivo", "value": "remained relatively stable"}, {"measurement": "Mean weight Absolute Change (Withdrawal-Lead-in)", "setting": "n = 85", "value": -0.09, "unit": "kg"}]}
